{"source": "patent US12310975B2", "about": "“Modulators of BCL6 proteolysis and associated methods of use” (Arvinas Operations, Inc., priority 2019, dated 2025)", "target": "BCL6 (Homo sapiens (Human), UniProt P41182)", "experiment": "Immunofluorescence high content imaging of BCL6 degradation in T47D cells", "format": "cell-based", "details": "for DC50: class symbols A-D, read-out: EC50 (nM)*", "procedure,_shortened": "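T47D cells were treated for 3 days at 37 °C with 11-point 3-fold dilutions of bifunctional degrader (final top 0.1 or 1 μM). BCL6 was detected by immunofluorescence after PFA fixation, with Hoechst and cell mask counterstains, and imaged at 10×, 4 fields/well.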", "note": "Like-named read-outs stand apart in the source and are kept apart here."}
{"smiles": "CNC(=O)COc1cc2cc(Nc3nc(N4CCN(C(C)(C)C5CCN(c6ccc(OC)c(C(=O)NC7CCC(=O)NC7=O)c6F)CC5)CC4)ncc3Cl)ccc2n(C)c1=O", "note": "(centres unmarked) [compound 468, 3-[4-(2-{4-[5-chloro-4-({1-methyl-3-[(methylcarbamoyl)methoxy]-2-oxo-1,2-dihydroquinolin-6-yl}amino)pyrimidin-2-yl]piperazin-1-yl}propan-2-yl)piperidin-1-yl]-N-(2,6-dioxopiperidin-3-yl)-2-fluoro-6-methoxybenzamide]", "values": [{"measurement": "Dmax", "setting": "T47D", "result": "≥ 70", "unit": "%"}]}
{"smiles": "CC(=O)COc1cc2cc(Nc3nc(N4CCC(OCCOCCOCCOCCOCCOc5ccc6c(c5)CN(C5CCC(=O)NC5=O)C6=O)CC4)ncc3Cl)ccc2n(C)c1=O", "note": "(centres unmarked) [compound 98, 3-(5-((14-((1-(5-chloro-4-((1-methyl-2-oxo-3-(2-oxopropoxy)-1,2-dihydroquinolin-6-yl)amino)pyrimidin-2-yl)piperidin-4-yl)oxy)-3,6,9,12-tetraoxatetradecyl)oxy)-1-oxoisoindolin-2-yl)piperidine-2,6-dione]", "values": [{"measurement": "DC50", "result": "10 to 50", "unit": "nM"}]}
{"smiles": "CNC(=O)COc1cc2cc(Nc3nc(N4CCC(OCCOCCOCCOCCOCCOc5ccc6c(c5)CN(C5CCC(=O)N(C)C5=O)C6=O)CC4)ncc3Cl)ccc2n(C)c1=O", "note": "(centres unmarked) [compound 87, 2-((6-((5-chloro-2-(4-((14-((2-(1-methyl-2,6-dioxopiperidin-3-yl)-1-oxoisoindolin-5-yl)oxy)-3,6,9,12-tetraoxatetradecyl)oxy)piperidin-1-yl)pyrimidin-4-yl)amino)-1-methyl-2-oxo-1,2-dihydroquinolin-3-yl)oxy)-N-methylacetamide]", "values": [{"measurement": "DC50", "result": "50 to 100", "unit": "nM"}]}
{"smiles": "CNC(=O)COc1cc2cc(Nc3nc(N4CCO[C@H](COc5ccc(C(=O)NC6CCC(=O)NC6=O)c(F)c5)C4)ncc3Cl)ccc2n(C(C)C)c1=O", "note": "(stereo partly drawn) [compound 350, 4-{[(2S)-4-[5-chloro-4-({3-[(methylcarbamoyl)methoxy]-2-oxo-1-(propan-2-yl)-1,2-dihydroquinolin-6-yl}amino)pyrimidin-2-yl]morpholin-2-yl]methoxy}-N-(2,6-dioxopiperidin-3-yl)-2-fluorobenzamide]", "values": [{"measurement": "Dmax", "setting": "T47D cells", "result": "< 50", "unit": "%"}, {"measurement": "IC50", "setting": "T47D cells", "result": "< 10", "unit": "nM"}]}
{"smiles": "CNC(=O)COc1cc2cc(Nc3nc(N4CCC(OCCOCCOCCOc5cc(-c6scnc6C)ccc5CNC(=O)[C@@H]5C[C@@H](O)CN5C(=O)[C@@H](c5cc(C)no5)C(C)C)CC4)ncc3Cl)ccc2n(C)c1=O", "note": "[compound 50, (2S,4R)-N-(2-(2-(2-(2-((1-(5-chloro-4-((1-methyl-3-(2-(methylamino)-2-oxoethoxy)-2-oxo-1,2-dihydroquinolin-6-yl)amino)pyrimidin-2-yl)piperidin-4-yl)oxy)ethoxy)ethoxy)ethoxy)-4-(4-methylthiazol-5-yl)benzyl)-4-hydroxy-1-((R)-3-methyl-2-(3-methylisoxazol-5-yl)butanoyl)pyrrolidine-2-carboxamide]", "values": [{"measurement": "DC50", "result": "> 100", "unit": "nM"}]}
{"smiles": "CNC(=O)COc1cc2cc(Nc3nc(N4CCC(OC5CCC6(CC5)CN(c5cccc7c5C(=O)N(C5CCC(=O)NC5=O)C7=O)C6)CC4)ncc3Cl)ccc2n(C(C)C)c1=O", "note": "(centres unmarked) [compound 434, 2-{[6-({5-chloro-2-[4-({2-[2-(2,6-dioxopiperidin-3-yl)-1,3-dioxo-2,3-dihydro-1H-isoindol-4-yl]-2-azaspiro[3.5]nonan-7-yl}oxy)piperidin-1-yl]pyrimidin-4-yl}amino)-2-oxo-1-(propan-2-yl)-1,2-dihydroquinolin-3-yl]oxy}-N-methylacetamide]", "values": [{"measurement": "Dmax", "setting": "T47D cells", "result": "50 to 70", "unit": "%"}, {"measurement": "IC50", "setting": "T47D cells", "result": "< 10", "unit": "nM"}]}
{"smiles": "CNC(=O)COc1cc2cc(Nc3nc(N4CCC(Cc5cn(CCOCCOCCOc6ccc7c(c6)C(=O)N(C6CCC(=O)NC6=O)C7=O)nn5)CC4)ncc3Cl)ccc2n(C)c1=O", "note": "(centres unmarked) [compound 130, 2-((6-((5-chloro-2-(4-((1-(2-(2-(2-((2-(2,6-dioxopiperidin-3-yl)-1,3-dioxoisoindolin-5-yl)oxy)ethoxy)ethoxy)ethyl)-1H-1,2,3-triazol-4-yl)methyl)piperidin-1-yl)pyrimidin-4-yl)amino)-1-methyl-2-oxo-1,2-dihydroquinolin-3-yl)oxy)-N-methylacetamide]", "values": [{"measurement": "DC50", "result": "> 100", "unit": "nM"}]}
{"smiles": "CNC(=O)COc1cc2cc(Nc3nc(N4CCC(OCCOCCOCCOCCNc5cccc6c5C(=O)N(C5CCC(=O)NC5=O)C6=O)CC4)ncc3Cl)ccc2n(C)c1=O", "note": "(centres unmarked) [compound 66, 2-((6-((5-chloro-2-(4-(2-(2-(2-(2-((2-(2,6-dioxopiperidin-3-yl)-1,3-dioxoisoindolin-4-yl)amino)ethoxy)ethoxy)ethoxy)ethoxy)piperidin-1-yl)pyrimidin-4-yl)amino)-1-methyl-2-oxo-1,2-dihydroquinolin-3-yl)oxy)-N-methylacetamide]", "values": [{"measurement": "DC50", "result": "> 100", "unit": "nM"}]}
{"smiles": "CCn1c(=O)c(OCC(=O)NC)cc2cc(Nc3nc(N4CCN(C(C)(C)C5CCN(c6cccc7c6C(=O)N(C6CCC(=O)NC6=O)C7=O)CC5)CC4)ncc3Cl)ccc21", "note": "(centres unmarked) [compound 312, 2-{[6-({5-chloro-2-[4-(2-{1-[2-(2,6-dioxopiperidin-3-yl)-1,3-dioxo-2,3-dihydro-1H-isoindol-4-yl]piperidin-4-yl}propan-2-yl)piperazin-1-yl]pyrimidin-4-yl}amino)-1-ethyl-2-oxo-1,2-dihydroquinolin-3-yl]oxy}-N-methylacetamide]", "values": [{"measurement": "IC50", "result": "< 10", "unit": "nM"}, {"measurement": "Dmax", "setting": "T47D", "result": "≥ 70", "unit": "%"}]}
{"smiles": "CNC(=O)COc1cc2cc(Nc3nc(N4CCC(OCCOCCOCCOc5cccc(CCOc6ccc7c(c6)CN(C6CCC(=O)NC6=O)C7=O)c5)CC4)ncc3Cl)ccc2n(C)c1=O", "note": "(centres unmarked) [compound 100, 2-((6-((5-chloro-2-(4-(2-(2-(2-(3-(2-((2-(2,6-dioxopiperidin-3-yl)-1-oxoisoindolin-5-yl)oxy)ethyl)phenoxy)ethoxy)ethoxy)ethoxy)piperidin-1-yl)pyrimidin-4-yl)amino)-1-methyl-2-oxo-1,2-dihydroquinolin-3-yl)oxy)-N-methylacetamide]", "values": [{"measurement": "DC50", "result": "> 100", "unit": "nM"}]}
{"smiles": "CCn1c(=O)c(OCC(=O)NC)cc2cc(Nc3nc(N4CCN(CC5CCN(c6ccc7c(c6)C(=O)N(C6CCC(=O)NC6=O)C7=O)CC5)CC4)ncc3Cl)ccc21", "note": "(centres unmarked) [compound 250, 2-((6-((5-chloro-2-(4-((1-(2-(2,6-dioxopiperidin-3-yl)-1,3-dioxoisoindolin-5-yl)piperidin-4-yl)methyl)piperazin-1-yl)pyrimidin-4-yl)amino)-1-ethyl-2-oxo-1,2-dihydroquinolin-3-yl)oxy)-N-methylacetamide]", "values": [{"measurement": "IC50", "result": "< 10", "unit": "nM"}, {"measurement": "Dmax", "setting": "T47D", "result": "50 to 70", "unit": "%"}]}
{"smiles": "CNC(=O)COc1cc2cc(Nc3nc(N4CCC(OCCOCCOCCOCCOCCOCCOc5ccc6c(c5)CN(C5CCC(=O)NC5=O)C6=O)CC4)ncc3Cl)ccc2n(C)c1=O", "note": "(centres unmarked) [compound 67, 2-((6-((5-chloro-2-(4-((17-((2-(2,6-dioxopiperidin-3-yl)-1-oxoisoindolin-5-yl)oxy)-3,6,9,12,15-pentaoxaheptadecyl)oxy)piperidin-1-yl)pyrimidin-4-yl)amino)-1-methyl-2-oxo-1,2-dihydroquinolin-3-yl)oxy)-N-methylacetamide]", "values": [{"measurement": "DC50", "result": "> 100", "unit": "nM"}]}
{"smiles": "CNC(=O)COc1cc2cc(Nc3nc(N4CCN(CC5CCN(c6ccc7c(c6)C(=O)N(C6CCC(=O)NC6=O)C7=O)CC5)CC4)ncc3Cl)ccc2n(C2CC2)c1=O", "note": "(centres unmarked) [compound 323, 2-{[6-({5-chloro-2-[4-({1-[2-(2,6-dioxopiperidin-3-yl)-1,3-dioxo-2,3-dihydro-1H-isoindol-5-yl]piperidin-4-yl}methyl)piperazin-1-yl]pyrimidin-4-yl}amino)-1-cyclopropyl-2-oxo-1,2-dihydroquinolin-3-yl]oxy}-N-methylacetamide]", "values": [{"measurement": "Dmax", "setting": "T47D cells", "result": "≥ 70", "unit": "%"}, {"measurement": "IC50", "setting": "T47D cells", "result": "< 10", "unit": "nM"}]}
{"smiles": "CNC(=O)COc1cc2cc(Nc3nc(N4CCC(Cc5cn(CCOCC(=O)N[C@H](C(=O)N6C[C@H](O)C[C@H]6C(=O)N[C@@H](C)c6ccc(-c7scnc7C)cc6)C(C)(C)C)nn5)CC4)ncc3Cl)ccc2n(C)c1=O", "note": "[compound 122, (2S,4R)-1-((S)-2-(2-(2-(4-((1-(5-chloro-4-((1-methyl-3-(2-(methylamino)-2-oxoethoxy)-2-oxo-1,2-dihydroquinolin-6-yl)amino)pyrimidin-2-yl)piperidin-4-yl)methyl)-1H-1,2,3-triazol-1-yl)ethoxy)acetamido)-3,3-dimethylbutanoyl)-4-hydroxy-N-((S)-1-(4-(4-methylthiazol-5-yl)phenyl)ethyl)pyrrolidine-2-carboxamide]", "values": [{"measurement": "DC50", "result": "50 to 100", "unit": "nM"}]}
{"smiles": "CNC(=O)COc1cc2cc(Nc3nc(N4CCC(OCCOCCOCCOCc5ccc(Oc6ccc7c(c6)CN(C6CCC(=O)NC6=O)C7=O)cc5)CC4)ncc3Cl)ccc2n(C)c1=O", "note": "(centres unmarked) [compound 135, 2-((6-((5-chloro-2-(4-(2-(2-(2-((4-((2-(2,6-dioxopiperidin-3-yl)-1-oxoisoindolin-5-yl)oxy)benzyl)oxy)ethoxy)ethoxy)ethoxy)piperidin-1-yl)pyrimidin-4-yl)amino)-1-methyl-2-oxo-1,2-dihydroquinolin-3-yl)oxy)-N-methylacetamide]", "values": [{"measurement": "DC50", "result": "> 100", "unit": "nM"}]}
{"smiles": "CNC(=O)COc1cc2cc(Nc3nc(N4C[C@@H](C)N(CC5CCN(c6cccc7c6C(=O)N(C6CCC(=O)NC6=O)C7=O)CC5)[C@@H](C)C4)ncc3Cl)ccc2n(C(C)C)c1=O", "note": "(stereo partly drawn) [compound 387, 2-{[6-({5-chloro-2-[(3R,5S)-4-({1-[2-(2,6-dioxopiperidin-3-yl)-1,3-dioxo-2,3-dihydro-1H-isoindol-4-yl]piperidin-4-yl}methyl)-3,5-dimethylpiperazin-1-yl]pyrimidin-4-yl}amino)-2-oxo-1-(propan-2-yl)-1,2-dihydroquinolin-3-yl]oxy}-N-methylacetamide]", "values": [{"measurement": "Dmax", "setting": "T47D cells", "result": "50 to 70", "unit": "%"}, {"measurement": "IC50", "setting": "T47D cells", "result": "< 10", "unit": "nM"}]}
{"smiles": "CNC(=O)COc1cc2cc(Nc3nc(N4CCC(OCCOCCOCCCOc5ccc6c(c5)CN(C5CCC(=O)NC5=O)C6=O)CC4)ncc3Cl)ccc2n(C)c1=O", "note": "(centres unmarked) [compound 146, 2-((6-((5-chloro-2-(4-(2-(2-(3-((2-(2,6-dioxopiperidin-3-yl)-1-oxoisoindolin-5-yl)oxy)propoxy)ethoxy)ethoxy)piperidin-1-yl)pyrimidin-4-yl)amino)-1-methyl-2-oxo-1,2-dihydroquinolin-3-yl)oxy)-N-methylacetamide]", "values": [{"measurement": "DC50", "result": "> 100", "unit": "nM"}]}
